{"source": "patent US10576050B2", "about": "“Methods and compositions for treatment of cancer” (ONCONOVA THERAPEUTICS, INC., priority 2012, dated 2020)", "key": {"[1]": {"assay": "Oral administration of Rigosertib 25 mg dose capsule in MDS patients, plasma level"}, "[2]": {"assay": "Phase 1 dose escalation study of oral ON 01910.Na in MDS patients refractory to ESA, lenalidomide and DNA methyltransferase inhibitors", "description": "FIG. 1: Safety and efficacy of Rigosertib (ON 01910.Na) was determined in a dose escalation study in MDS patients refractory to ESA, lenalidomide and DNA Methyltransferase inhibitors. ESA was allowed as concomitant medication. The drug dose was escalated based on a defined escalation dose scheme (70 mg, 140 mg, 280 mg, 560 mg, and 700 mg). Three patients were treated with single escalating weekly doses of oral Rigosertib to determine the oral absorption of Rigosertib.\nFIG. 3: The oral absorption and tolerability of Rigosertib administered as single weekly escalating doses in a fasting state were determined in 3 patients. All 3 patients received a 70 mg single oral dose and blood samples for pharmacokinetic analyses were obtained. In the absence of drug-related grade ≥2 toxicity, single dosing was escalated weekly in each patient to 140 mg (week 2), 280 mg (week 3), 560 mg (week 4) and 700 mg (week 5).\nFIG. 4: This is a waterfall plot of 8 patients broken down by French American British classification (FAB) as either Refractory Anemia with Excess Blasts-1 (RAEB-1) or RAEB-2. […] The dosage level of each patient is also provided, as well as the patient history of treatment with Azacytidine. The bone marrow blast reduction is measures as a function of FAB classification, dosage and prior treatment with hypomethylating agents.\nFIG. 10: Transfusion independence. […] Transfusion independence (TI) defined by absence of RBC transfusion for at least 8 consecutive weeks. Erythroid Response (ER) defined by reduction of at least 4 RBC transfusions/8 weeks compared to pretreatment transfusion number in the previous 8 weeks (RBC Tx for Hb<9.0 g/dL).\nEach bar represents one patient. 12 individual MDS patients all categorized as low to intermediate-1 risk (International Prognostic Scoring System—IPSS) and transfusion dependent are shown. […] The decrease in transfusion requirement is plotted for each patient. The absolute differences in red blood cell (RBC) units versus pre-treatment needs are provided.\nA total of 16 patients are plotted against their percentage reduction in need for red blood cell transfusions after treatment versus their pre-treatment needs.\nSafety and efficacy of a novel oral formulation of ON 01910.Na were determined in a dose escalation study in MDS patients refractory to ESA, lenalidomide and DNA Methyltransferase inhibitors.\nESA was allowed as concomitant medication. The drug dose was escalated based on a defined escalation dose scheme (70, 140, 280, 560, and 700 mg). The drug was administered orally twice a day for 14 days of a 21 day cycle.\nRigosertib (ON 01910.Na) was used in five clinical trials for myelodysplastic syndrome (MDS) in both intravenous and oral formulations."}, "[3]": {"conditions": "8 RAEB-1/RAEB-2 patients, FIG. 4"}, "[4]": {"conditions": "individual patients achieving transfusion independence"}}, "note": "Where “and” joins values, the source holds several entries; their conditions need not be identical. Equal entries are not always repeated."}
{"molecule": "COc1cc(OC)c(/C=C/S(=O)(=O)Cc2ccc(OC)c(NCC(=O)[O-])c2)c(OC)c1.[Na+]", "note": "[Rigosertib, sodium (E)-2-{2-methoxy-5-[(2′,4′,6′-trimethoxystyrylsulfonyl)methyl]phenylamino}acetate]", "values": [{"measurement": "half-life", "setting": "[1]; human, plasma, po, 25 mg", "result": "~10", "unit": "h"}, {"measurement": "plasma peak level", "setting": "[1]; oral, 25 mg dose capsule, MDS patients", "result": "2 to 4", "unit": "µM"}, {"measurement": "patients with dose limiting toxicity (DLT) during first 3-week cycle", "setting": "[2]; 700 mg dose level, dysuria and shortness of breath", "result": "One"}, {"measurement": "patients responding (bone marrow blast reduction)", "setting": "[2]; [3]", "result": "6 of 8"}, {"measurement": "patients with bone marrow complete response (BM CR)", "setting": "[2]; [3]", "result": 2}, {"measurement": "patients showing decrease in transfusion dependence based on RBC requirement (absolute differences)", "setting": "[2]; 12 low to intermediate-1 risk transfusion dependent MDS patients, oral, 8 weeks, FIG. 13", "result": "3 of 12"}, {"measurement": "patients showing decrease in transfusion dependence based on decrease in percentage of RBC requirement", "setting": "[2]; 16 patients, FIG. 14", "result": "5 of 16"}, {"measurement": "tolerability of oral formulation", "setting": "[2]; 70-700 mg orally twice a day, 14 days of a 21 day cycle", "result": "well tolerated"}, {"measurement": "# Units/56 ds Trt", "setting": "[2]; RBC units per 56 days of treatment, individual patients", "result": "8.0 and 10.5 (2×) and 3.2 and 3.1 and 0.3 (2×) and 4.4 and 11.6 (2×) and 7.1 and 2.0 and 4.3 and 2.9 and 4.9 and 6.4"}, {"measurement": "% Reduction", "setting": "[2]; RBC units vs pre-treatment, individual patients", "result": "100% and 74% and −68% and −49% and −87% and −45% and −88% and 44% and −41% and −50% and 5% and −29% and −52% and −18% and 7% and −3%"}, {"measurement": "# Units during Trt", "setting": "[2]; RBC units, individual patients, one table row per patient", "result": "2 (4×) and 17 and 10 and 16 (3×) and 13 and 4 (4×) and 21 and 8"}, {"measurement": "safe and efficacious dose", "setting": "[2]; bid, oral, 14 days of a 21 day cycle", "result": 560, "unit": "mg"}, {"measurement": "TX response", "setting": "[2]; individual Low-Int-1 risk transfusion dependent MDS patients, 560 or 700 mg bid, one table row per patient", "result": "No"}, {"measurement": "Duration Tx indep", "setting": "[2]; [4]", "result": "16 and 47+ (2×) and 8"}, {"measurement": "Onset Tx indep week", "setting": "[2]; [4]", "result": "10 and 7 and 6 and 3"}, {"measurement": "Cmax as a function of dose", "setting": "[2]; single weekly escalating oral doses 70-700 mg, fasting, 3 patients", "result": "increased linearly"}, {"measurement": "Red RBC Units", "setting": "[2]; units/56 days on treatment vs units in 56 days pre-treatment, individual patients", "result": "4.0 and 4.5 and −6.8 and −2.9 and −3.7 and −3.6 and −5.7 and 3.6 and −4.9 and −2.0 and 0.5 and −1.7 and −3.1 and −1.1 and 0.4 and −0.4"}]}
